Results published in ChEMBL document CHEMBL1201862, “PubChem BioAssay data set” (2004).
Each block holds one molecule with its values, some of them ahead of it. The source made the active and inactive calls.

Legend:
[1] = reduced cellular PGC1a acetyl-lysine signal – cell-based, cherry-picked samples, dose response (AID 720514); format: functional;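 also: potency may reflect raised or lowered acetylation signal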
[2] = P. falciparum Dd2 growth inhibitors, dose response, SYBR Green, cherry-picked samples (AID 1159567); format: functional, cell-based
[3] = blockers of HIV-1 envelope-mediated cell-cell fusion – cherry-pick, dose response (AID 652057); format: functional, cell-based
[4] = viability loss in CEM21 cells – cell-based, CellTiter-Glo luminescence, cherry-picked, cytotoxicity control for viral fusion inhibitor project, dose response (AID 652042); format: functional;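 also: potency for signal decrease meaning cytotoxicity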
[5] = OVCAR-3 cell viability loss – plate reader, dry powder samples, PAX8 inhibitor project, dose response (AID 743044); format: functional, cell-based
[6] = molecular target: Paired box protein Pax-8 (Homo sapiens, UniProt Q06710); experiment: PAX8 transcriptional activity inhibition in RMG-I – RMG-I cells, luciferase, cherry-pick, dose response (AID 687027); format: functional, cell-based;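 also: luciferase reporter driven by Pax8 target thyroperoxidase promoter measured by SteadyGlo luminescence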
Sequence of Paired box protein Pax-8 (Q06710 whole entry): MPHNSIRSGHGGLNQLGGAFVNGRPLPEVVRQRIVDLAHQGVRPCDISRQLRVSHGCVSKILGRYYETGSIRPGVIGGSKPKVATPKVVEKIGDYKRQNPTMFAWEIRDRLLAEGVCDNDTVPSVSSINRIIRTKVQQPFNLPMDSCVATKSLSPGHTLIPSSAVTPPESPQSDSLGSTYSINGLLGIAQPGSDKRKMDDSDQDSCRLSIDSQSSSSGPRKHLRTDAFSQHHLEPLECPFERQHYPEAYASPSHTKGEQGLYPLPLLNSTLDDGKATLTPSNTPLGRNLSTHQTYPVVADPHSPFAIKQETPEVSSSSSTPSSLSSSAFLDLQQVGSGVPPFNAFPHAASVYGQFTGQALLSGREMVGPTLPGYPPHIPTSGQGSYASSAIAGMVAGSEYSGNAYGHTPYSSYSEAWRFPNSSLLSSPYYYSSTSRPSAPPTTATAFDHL

[7] = A2780 cell killing – plate reader, dry powder samples, cytotoxicity control, dose response (AID 743046); format: functional, cell-based
[8] = general mammalian cell viability loss – inhibitor set, cherry-pick, set 2, cytotoxicity control for miR-122 modulator project, dose response (AID 720697); format: functional, cell-based
[9] = T. cruzi growth inhibition in host cells, dose response, cell-based, plate reader, dry powder, set 2 (AID 652275); format: functional
[10] = MITF: Counter assay: A375 proliferation Measured in Cell-Based System Using Plate Reader - 2084-03_Inhibitor_Dose_DryPowder_Activity_Set8.; format: functional; conditions: A-375
[11] = inhibitors of TRPM1-promoter reporter in SK-MEL-5 – cell-based, luciferase, dry powder, set 8, MITF inhibitor project, dose response (AID 624430); format: functional
[12] = MITF Orthogonal Assay: SK-MEL-5 CTG Assay Measured in Cell-Based System Using Plate Reader - 2084-02_Inhibitor_Dose_DryPowder_Activity_Set7.; format: functional
[13] = molecular target: T1, Oxysterols receptor LXR-beta (Homo sapiens, UniProt P55055); format: functional, cell-based;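 also: agonist activity at LXR measured by a cell-based luminescence readout across a dose range, run as a counterscreen for daf-12 agonists; HEK293 cells with Gal4-LXR fusion and GAL4-driven luciferase reporter; potency for activation of Gal4-LXR reporter so compounds are agonists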
T1 sequence (P55055 whole entry): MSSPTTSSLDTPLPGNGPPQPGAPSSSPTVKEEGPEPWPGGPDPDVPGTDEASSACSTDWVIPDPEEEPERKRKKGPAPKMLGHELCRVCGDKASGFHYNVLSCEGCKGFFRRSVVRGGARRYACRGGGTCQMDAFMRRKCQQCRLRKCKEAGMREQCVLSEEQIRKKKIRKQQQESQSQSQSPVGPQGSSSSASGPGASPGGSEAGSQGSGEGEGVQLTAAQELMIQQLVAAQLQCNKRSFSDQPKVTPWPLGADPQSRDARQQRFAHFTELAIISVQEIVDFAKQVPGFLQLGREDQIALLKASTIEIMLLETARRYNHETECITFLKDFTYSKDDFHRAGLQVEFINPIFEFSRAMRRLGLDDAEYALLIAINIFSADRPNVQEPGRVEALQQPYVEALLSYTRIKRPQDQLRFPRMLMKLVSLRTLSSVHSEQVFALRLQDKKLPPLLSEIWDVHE

[14] = OVCAR8 cell viability loss – plate reader, dry powder samples, PAX8 project, dose response (AID 743197); format: functional, cell-based; conditions: OVCAR-8
[15] = molecular target: Disintegrin and metalloproteinase domain-containing protein 17 (Homo sapiens, UniProt P78536); experiment: inhibition of ADAM17 substrate cleavage – biochemical, quenched FRET substrate, counter-screen for ADAM10 exosite inhibitor project, dose response (AID 743253)
Sequence of Disintegrin and metalloproteinase domain-containing protein 17 (P78536 whole entry, the tested form may be a part): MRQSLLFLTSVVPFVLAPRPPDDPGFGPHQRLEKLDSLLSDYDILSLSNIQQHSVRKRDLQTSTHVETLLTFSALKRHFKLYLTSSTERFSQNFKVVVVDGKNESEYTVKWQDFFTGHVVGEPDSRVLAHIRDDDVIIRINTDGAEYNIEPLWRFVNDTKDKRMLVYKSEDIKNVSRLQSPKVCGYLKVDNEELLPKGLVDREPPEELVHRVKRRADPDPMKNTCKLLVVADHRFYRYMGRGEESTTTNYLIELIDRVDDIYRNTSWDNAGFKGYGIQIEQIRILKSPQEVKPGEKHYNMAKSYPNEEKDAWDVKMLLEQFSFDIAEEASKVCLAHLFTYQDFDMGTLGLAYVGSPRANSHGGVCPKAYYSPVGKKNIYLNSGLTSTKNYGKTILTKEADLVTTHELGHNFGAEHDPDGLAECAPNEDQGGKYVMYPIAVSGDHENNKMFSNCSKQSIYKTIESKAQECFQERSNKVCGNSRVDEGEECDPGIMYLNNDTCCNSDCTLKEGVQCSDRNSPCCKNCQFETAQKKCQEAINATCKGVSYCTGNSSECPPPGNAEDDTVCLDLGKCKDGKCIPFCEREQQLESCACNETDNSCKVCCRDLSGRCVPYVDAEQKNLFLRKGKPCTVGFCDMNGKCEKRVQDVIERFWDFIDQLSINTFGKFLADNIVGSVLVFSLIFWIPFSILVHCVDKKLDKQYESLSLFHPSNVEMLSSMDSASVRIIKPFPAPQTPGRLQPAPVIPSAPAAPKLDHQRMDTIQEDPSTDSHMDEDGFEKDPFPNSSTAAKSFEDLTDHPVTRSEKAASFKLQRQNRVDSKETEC

[16] = molecular target: Albumin (Bos taurus, UniProt P02769); experiment: Counterscreen for inhibitors of T-cell receptor (TCR)-CD3 interaction: Fluorescence-based biochemical high throughput dose response assay to identify inhibitors of T-cell receptor (TCR)-CD3 interaction using a TAMRA-labeled BSA probe.; format: functional
Sequence of Albumin (P02769 whole entry): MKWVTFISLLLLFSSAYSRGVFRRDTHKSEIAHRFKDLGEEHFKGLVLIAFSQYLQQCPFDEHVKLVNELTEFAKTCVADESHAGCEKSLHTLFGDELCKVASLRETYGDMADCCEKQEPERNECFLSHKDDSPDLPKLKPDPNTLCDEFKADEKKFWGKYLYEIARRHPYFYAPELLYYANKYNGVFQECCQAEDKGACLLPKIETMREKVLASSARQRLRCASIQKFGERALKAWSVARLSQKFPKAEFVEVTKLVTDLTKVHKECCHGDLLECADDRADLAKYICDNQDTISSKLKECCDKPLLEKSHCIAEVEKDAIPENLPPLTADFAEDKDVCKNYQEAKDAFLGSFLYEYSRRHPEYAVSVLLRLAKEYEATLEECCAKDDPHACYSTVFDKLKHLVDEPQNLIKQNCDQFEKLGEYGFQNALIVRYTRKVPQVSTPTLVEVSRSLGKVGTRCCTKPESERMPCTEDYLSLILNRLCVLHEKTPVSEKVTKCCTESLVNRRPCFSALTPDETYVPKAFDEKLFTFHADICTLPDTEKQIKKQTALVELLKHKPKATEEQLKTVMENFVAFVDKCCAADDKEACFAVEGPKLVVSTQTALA

[17] = potency of ADAM10 substrate cleavage blockers – biochemical, QFRET, dose response (AID 743254);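 also: ADAM10 enzyme with the DM2 quenched FRET peptide as substrate; EDANS fluorescence gain as the protease cuts the substrate; inhibitor potency against ADAM10 proteolytic activity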

Compound: Cc1ccc(-c2ccc3c(c2)O[C@@H](CN(C)C(=O)C2CCCCC2)[C@H](C)CN([C@H](C)CO)S3(=O)=O)cc1
AC50 [1]: 15 µM (active) | AC50 [2]: 3.07 µM (active) | AC50 [3]: 20.7 µM (active) | AC50 [4]: 22 µM (active)

Compound: C[C@H](CO)N1C[C@H](C)[C@@H](CN(C)S(=O)(=O)c2ccccc2)OCCCC[C@H](C)Oc2ccc(NS(=O)(=O)c3ccc(Cl)cc3)cc2C1=O
AC50 [5]: 32.2 µM (active) | AC50 [6]: 5.23 µM (active) | AC50 [7]: 49.8 µM (active)

Compound: CCNC(=O)C[C@@H]1CC[C@H]2[C@H](COc3ccc(NC(=O)c4cccc(C(F)(F)F)c4)cc3C(=O)N2C)O1
AC50 [8]: 3.05 µM (active)

Compound: COc1cccc(-c2ccc([C@H]3[C@H](CO)N4CCCCN(CC5CCOCC5)C[C@@H]34)cc2)c1
AC50 [9]: 1.88 µM (active)

Compound: CC1=C(Nc2ccc(Cl)cc2)C(=O)c2ccccc2C1=O
AC50 [10]: > 70 µM (inactive) | AC50 [11]: 40.7 µM (active) | AC50 [12]: 0.802 µM (active)

Compound: OC[C@H]1[C@H](c2ccc(-c3ccccc3)cc2)[C@@H]2CN(Cc3cncnc3)CCCCN12
AC50 [9]: 0.185 µM (active)

EC50 [13]: > 67.5 µM (inactive)
Compound: CCCn1/c(=N/C(=O)c2ccco2)c(C(=O)OCC)cc2c(=O)n3ccccc3nc21

Compound: COc1ccc(NC(=O)N2CCCCN3[C@@H](CO)[C@@H](c4ccc(C5=CCCC5)cc4)[C@@H]3C2)cc1
AC50 [5]: 41.6 µM (active) | AC50 [14]: 64.1 µM (active) | AC50 [7]: 52.9 µM (active)

IC50 [15]: > 69.5 µM (inactive) | IC50 [16]: > 94.1 µM (inactive) | IC50 [17]: > 69.5 µM (inactive)
Compound: COc1cc(/C=N/NC(=O)COc2ccc(Cl)cc2)ccc1OS(=O)(=O)c1ccc(C)cc1
